Laboratory results reported in US9302998B2, “Aryl triazole compounds with antitumoural activity” (SIGMA-TAU RESEARCH SWITZERLAND S.A., priority 2010, dated 2016).

Legend:
MiaPaCa2 pancreas = assay: Sulphorodamine B test at single concentration, MiaPaCa2; type: cell-based; conditions: Homo sapiens, MIA PaCa-2; 500 nM, 72 h
Experimental: (§1) The antiproliferative activity of novel Hsp90 inhibitors was also evaluated on various cancerous cell lines by means of the sulphorodamine B test (i.e., NCI-H460 non-small cell lung carcinoma, A431 epidermoid, A2780 ovarian, MDA-MB436 triple-negative breast, U87MG glioblastoma, A498 renal, HCT116 colon, MeWo melanoma, MiaPaCa2 pancreas, HeLa cervix uteri, NB4 promyelocytic leukemia). NCI-H460, A431, MDA-MB436, A2780, A498, HeLa, NB4 tumour cells were grown in RPMI 1640 containing 10% fetal bovine serum (i.e., FBS from GIBCO), L-glutamine, and 50 μg/ml gentamycin sulfate.
MiaPaCa2 cells were cultured in DMEM medium containing 10% FBS, L-glutamine, and 50 μg/ml gentamycin sulfate.
(§2) All cell lines were maintained in a 37° C. incubator with saturated humidity and an atmosphere containing 95% air and 5% CO2, and were sub-cultured every 2-3 days. Tumour cells were seeded in 96-well tissue culture plates at approximately 10% confluence and were allowed to attach and recover for 24 h.
(§3) Varying concentrations of the drugs were then added to each well to calculate their IC50 value (the concentration which inhibits the 50% of cell survival). The plates were incubated at 37° C. for 72 h. At the end of the treatment, the plates were washed by remotion of the supernatant and addition of PBS 3 times. 200 μl PBS and 50 μl of cold 80% trichloroacetic acid (TCA) were added. The plates were incubated on ice for at least 1 h. TCA was removed, the plates were washed 3 times by immersion in distilled-water and dried on paper and at 40° C. for […]. Then 200 μl of 0.4% sulphorodamine B in 1% acetic acid were added. The plates were incubated at room temperature for 30 min. Sulphorodamine B was removed, the plates were washed by immersion in 1% acetic acid for 3 times, then they were dried on paper and at 40° C. for 5 min. Then, 200 μl Tris 10 mM were added, the plates were kept under stirring for 20 min. The cell survival was determined as optical density by a Multiskan […] at 540 nm. The amount of cells killed was calculated as the percentage decrease in sulphorodamine B binding compared with control cultures.
(§4) The other cell lines were screened against one single concentration of the various inhibitors (i.e., 500 nM), all experiments being made in octuplicate, following the protocol described at example 35. Since NB4 cell line was grown in suspension, a further step of centrifugation (i.e., 1600 g for 10 min) was added after the 72 hour incubation period.

[1] = system: NCI-H460 non-small cell lung carcinoma; assay: Cytotoxicity assay, sulphorodamine B test, NCI-H460; type: cell-based; conditions: Homo sapiens, NCI-H460; 72 h, sulphorodamine B
Experimental: as §1, §2, §3

A2780 ovarian = assay: Sulphorodamine B test at single concentration, A2780; type: cell-based; conditions: Homo sapiens, 500 nM, 72 h
Experimental: as §1, §2, §3, §4

A431 epidermoid = assay: Sulphorodamine B test at single concentration, A431; type: cell-based; conditions: Homo sapiens, A-431; 500 nM, 72 h
Experimental: as §1, §2, §3, §4

Hsp90 = biological target: T1, Hsp90 (Homo sapiens, UniProt P07900); assay: Fluorescence Polarization (FP) binding, GM-BODIPY displacement from Hsp90; conditions: GM-BODIPY tracer, 4° C. for 4 hours
T1 construct: purchased Stressgen SPP-776
Experimental: GM-BODIPY (PerkinElmer, CUSN60342000MG) was previously dissolved in DMSO to obtain 10 mM stock solutions and kept at −20° C. until use.
Hsp90 (Stressgen, SPP-776), was previously dissolved in assay buffer (HFB) to form 2.2 μM stock solutions and kept at −80° C. until use.
The compounds were previously dissolved in DMSO to obtain stock solutions and kept at −20° C. The day of experiment, the compounds were prepared by serial dilutions in assay buffer (HFB) containing 20 mM HEPES (K) pH 7.3, 50 mM KCl, 5 mM MgCl2, 20 mM Na2MoO4 and 0.01% NP40. Before each use, 0.1 mg/ml Bovine Gamma globulin and 2 mM DTT were freshly added.
Fluorescence Polarization (FP) was performed in Opti-Plate™-96F well plates (Perkin Elmer, Zaventem, Belgium) using a plate reader (Wallac Envision 2101 multilabel reader, Perkin Elmer, Zaventem, Belgium). To evaluate the binding affinity of the molecules, 50 μl of the GM-BODIPY solution (100 nM) were added to 125 nM of Hsp90 in the presence of 5 μl of the test compounds at increasing concentrations. The plate was mixed on a shaker at 4° C. for 4 hours, and the FP values in mP (millipolarization units) were recorded. The IC50 values were calculated as the inhibitor concentration where 50% of the tracer is displaced; each data point is the result of the average of triplicate wells, and was determined from a plot using nonlinear least-squares analysis. Curve fitting was performed using
Prism GraphPad software program (GraphPad software, Inc., San Diego, Calif.).

HCT116 colon = assay: Sulphorodamine B test at single concentration, HCT116; type: cell-based; conditions: Homo sapiens, HCT-116; 500 nM, 72 h
Experimental: as §1
HCT116 cells were cultured in McCoy's medium containing 10% FBS, L-glutamine, and 50 μg/ml gentamycin sulfate.
as §2, §3, §4

[2] = system: MDA-MB436 triple-negative breast; assay: Sulphorodamine B test at single concentration, MDA-MB436; type: cell-based; conditions: Homo sapiens, MDA-MB-436; 500 nM, 72 h
Experimental: as §1, §2, §3, §4

MeWo melanoma = assay: Sulphorodamine B test at single concentration, MeWo; type: cell-based; conditions: Homo sapiens, 500 nM, 72 h
Experimental: as §1
(§5) MeWo and U87-MG cells were cultured in Eagle's Minimum Essential Medium (i.e., EMEM) containing 10% FBS, L-glutamine, 1 mM sodium pyruvate, 0.1 mM non-essential amino acids, 1.5 g/l sodium bicarbonate, and 50 μg/ml gentamycin sulphate.
as §2, §3, §4

U87MG glioblastoma = assay: Sulphorodamine B test at single concentration, U87MG; type: cell-based; conditions: Homo sapiens, U-87 MG; 500 nM, 72 h
Experimental: as §1, §5, §2, §3, §4

A498 renal = assay: Sulphorodamine B test at single concentration, A498; type: cell-based; conditions: Homo sapiens, 500 nM, 72 h
Experimental: as §1, §2, §3, §4

HeLa cervix uteri = assay: Sulphorodamine B test at single concentration, HeLa; type: cell-based; conditions: Homo sapiens, 500 nM, 72 h
Experimental: as §1, §2, §3, §4

[3] = system: NB4 promyelocytic leukemia; assay: Sulphorodamine B test at single concentration, NB4; type: cell-based; conditions: 500 nM, 72 h, suspension cells
Experimental: as §1, §2, §3, §4

CCNC(=O)c1nnn(-c2cc(C(C)C)c(O)cc2O)c1-c1ccc(CNCCN2CCOCC2)cc1 [Example 14, 1-(2,4-dihydroxy-5-isopropyl-phenyl)-5-{4-[(2-morpholin-4-yl-ethylamino)-methyl]-phenyl}-1H-[1,2,3]triazole-4-carboxylic acid ethylamide]
inhibition at 0.5 µM (MiaPaCa2 pancreas): ≥ 50%
IC50 [1]: 100 to 500 nM
inhibition at 0.5 µM (A2780 ovarian): ≥ 50%
inhibition at 0.5 µM (A431 epidermoid): ≥ 50%
IC50 (Hsp90): < 50 nM
inhibition at 0.5 µM (HCT116 colon): 30 to 50%
inhibition at 0.5 µM [2]: ≥ 50%
inhibition at 0.5 µM (MeWo melanoma): ≥ 50%
inhibition at 0.5 µM (U87MG glioblastoma): ≥ 50%

CC(C)c1cc(-n2nncc2NCc2ccc(N3CCOCC3)cc2)c(O)cc1O [Example 24, 4-isopropyl-6-[5-(4-morpholin-4-yl-benzylamino)-[1,2,3]triazol-1-yl]-benzene-1,3-diol]
IC50 (Hsp90): 100 to 500 nM

CCNC(=O)c1nnn(-c2cc(C(C)C)c(O)cc2O)c1Nc1ccc(N2CCOCC2)cc1 [Example 25, 1-(2,4-dihydroxy-5-isopropyl-phenyl)-5-(4-morpholin-4-yl-phenylamino)-1H-[1,2,3]triazole-4-carboxylic acid ethylamide]
IC50 [1]: 500 to 1000 nM
IC50 (Hsp90): 50 to 100 nM

CC(C)c1cc(-n2nnc(C(=O)N[C@H](C(=O)O)C(C)C)c2-c2ccc(CN3CCOCC3)cc2)c(O)cc1O [Example 31, (S)-2-{[1-(2,4-dihydroxy-5-isopropyl-phenyl)-5-(4-morpholin-4-ylmethyl-phenyl)-1H-[1,2,3]triazole-4-carbonyl]-amino}-3-methyl-butyric acid]
IC50 (Hsp90): 100 to 500 nM

CCNC(=O)c1nnn(-c2cc(C(C)C)c(O)cc2O)c1-c1ccc(CN2CCC(N(C)C)CC2)cc1 [Example 13, 1-(2,4-dihydroxy-5-isopropyl-phenyl)-5-[4-(4-dimethylamino-piperidin-1-ylmethyl)-phenyl]-1H-[1,2,3]triazole-4-carboxylic acid ethylamide]
inhibition at 0.5 µM (MiaPaCa2 pancreas): ≥ 50%
IC50 [1]: 100 to 500 nM
inhibition at 0.5 µM (A2780 ovarian): ≥ 50%
inhibition at 0.5 µM (A431 epidermoid): ≥ 50%
inhibition at 0.5 µM (A498 renal): 30 to 50%
IC50 (Hsp90): < 50 nM
inhibition at 0.5 µM (HCT116 colon): ≥ 50%
inhibition at 0.5 µM [2]: ≥ 50%
inhibition at 0.5 µM (HeLa cervix uteri): 30 to 50%
inhibition at 0.5 µM (MeWo melanoma): ≥ 50%
inhibition at 0.5 µM (U87MG glioblastoma): ≥ 50%

CC(C)c1cc(-n2nncc2-c2ccc(CN3CCOCC3)cc2)c(O)cc1O [Example 1]
IC50 [1]: 100 to 500 nM
IC50 (Hsp90): < 50 nM

CCNC(=O)c1nnn(-c2cc(C(C)C)c(O)cc2O)c1-c1ccc(CNC2CCCCC2)cc1 [Example 16, 5-(4-cyclohexylaminomethyl-phenyl)-1-(2,4-dihydroxy-5-isopropyl-phenyl)-1H-[1,2,3]triazole-4-carboxylic acid ethylamide]
IC50 [1]: < 50 nM
IC50 (Hsp90): < 50 nM

CCNC(=O)c1nnn(-c2cc(C(C)C)c(O)cc2O)c1-c1ccc(CN2CCNCC2)cc1 [Example 12, 1-(2,4-dihydroxy-5-isopropyl-phenyl)-5-(4-piperazin-1-ylmethyl-phenyl)-1H-[1,2,3]triazole-4-carboxylic acid ethylamide]
inhibition at 0.5 µM (MiaPaCa2 pancreas): ≥ 50%
IC50 [1]: 100 to 500 nM
inhibition at 0.5 µM (A2780 ovarian): ≥ 50%
inhibition at 0.5 µM (A498 renal): 30 to 50%
IC50 (Hsp90): < 50 nM
inhibition at 0.5 µM [2]: ≥ 50%

CC(C)c1cc(-n2nncc2Nc2ccc(N3CCOCC3)cc2)c(O)cc1O [Example 23, 4-isopropyl-6-[5-(4-morpholin-4-yl-phenylamino)-[1,2,3]triazol-1-yl]-benzene-1,3-diol]
IC50 (Hsp90): 50 to 100 nM

CC(C)c1cc(-n2nncc2-c2ccc(CN3CCN(Cc4ccccc4)CC3)cc2)c(O)cc1O [Example 3, 4-{5-[4-(4-benzyl-piperazin-1-ylmethyl)-phenyl]-[1,2,3]triazol-1-yl}-6-isopropyl-benzene-1,3-diol]
inhibition at 0.5 µM (MiaPaCa2 pancreas): ≥ 50%
IC50 [1]: 100 to 500 nM
inhibition at 0.5 µM (A2780 ovarian): ≥ 50%
inhibition at 0.5 µM (A431 epidermoid): ≥ 50%
inhibition at 0.5 µM [3]: ≥ 50%
inhibition at 0.5 µM (A498 renal): 30 to 50%
IC50 (Hsp90): < 50 nM
inhibition at 0.5 µM (HCT116 colon): ≥ 50%
inhibition at 0.5 µM [2]: ≥ 50%
inhibition at 0.5 µM (HeLa cervix uteri): ≥ 50%
inhibition at 0.5 µM (MeWo melanoma): ≥ 50%

CCNC(=O)c1nnn(-c2cc(C(C)C)c(O)cc2O)c1-c1ccc(CNC2CCN(C)CC2)cc1 [Example 19, 1-(2,4-dihydroxy-5-isopropyl-phenyl)-5-{4-[(1-methyl-piperidin-4-ylamino)-methyl]-phenyl}-1H-[1,2,3]triazole-4-carboxylic acid ethylamide]
IC50 (Hsp90): < 50 nM

CCNC(=O)c1nnn(-c2cc(C(C)C)c(O)cc2O)c1-c1ccc(CN(CC)CC)cc1 [Example 10, 5-(4-diethylaminomethyl-phenyl)-1-(2,4-dihydroxy-5-isopropyl-phenyl)-1H-[1,2,3]triazole-4-carboxylic acid ethylamide]
IC50 [1]: < 50 nM
IC50 (Hsp90): < 50 nM

CC(C)c1cc(-n2nncc2-c2ccc(CN3CCN(c4ccccc4)CC3)cc2)c(O)cc1O [Example 4, 4-isopropyl-6-{5-[4-(4-phenyl-piperazin-1-ylmethyl)-phenyl]-[1,2,3]triazol-1-yl}-benzene-1,3-diol]
IC50 [1]: 500 to 1000 nM
IC50 (Hsp90): < 50 nM

CCNC(=O)c1nnn(-c2cc(C(C)C)c(O)cc2O)c1NCc1ccc(N2CCOCC2)cc1 [Example 26, 1-(2,4-dihydroxy-5-isopropyl-phenyl)-5-(4-morpholin-4-yl-benzylamino)-1H-[1,2,3]triazole-4-carboxylic acid ethylamide]
inhibition at 0.5 µM (MiaPaCa2 pancreas): ≥ 50%
IC50 [1]: 100 to 500 nM
inhibition at 0.5 µM (A2780 ovarian): ≥ 50%
inhibition at 0.5 µM [3]: 30 to 50%
inhibition at 0.5 µM (A498 renal): ≥ 50%
IC50 (Hsp90): < 50 nM
inhibition at 0.5 µM (HCT116 colon): ≥ 50%
inhibition at 0.5 µM (MeWo melanoma): 30 to 50%

CCNC(=O)c1nnn(-c2cc(C(C)C)c(O)cc2O)c1-c1ccc(CNCCCN(CC)CC)cc1 [Example 18, 5-{4-[(3-diethylamino-propylamino)-methyl]-phenyl}-1-(2,4-dihydroxy-5-isopropyl-phenyl)-1H-[1,2,3]triazole-4-carboxylic acid ethylamide]
IC50 [1]: 500 to 1000 nM
IC50 (Hsp90): < 50 nM

CC(C)c1cc(-n2nnc(C(=O)N3CCOCC3)c2-c2ccc(CN3CCOCC3)cc2)c(O)cc1O [Example 30, [1-(2,4-dihydroxy-5-isopropyl-phenyl)-5-(4-morpholin-4-ylmethyl-phenyl)-1H-[1,2,3]triazol-4-yl]-morpholin-4-yl-methanone]
IC50 (Hsp90): 100 to 500 nM
